A value given as a limit tells only on which side of the number the result lay.

Assay type in all cases: physicochemical
Series [1] can be described thus: Turbidity of the emulsion before and after dilution with water, by turbidity meter. The settings on record: dilution factor not printed at the place. As for the experimental part:
A stable, optically clear, beverage is desirably obtained. Homogenization is carried out with a pressure of between 300 bar and 1500 bar, preferably about 800 bar. The homogenization pressure may be applied for between 1 and 5 passes. The ratio of emulsifier to carrier oil in the emulsion may be containing an excess amount of emulsifier in oil, which could be used to make an optically clear beverage. An optimal concentration of between 0 and 3 times more emulsifier in contrast to the oil phase will be tested. Cloudy beverages have a high turbidity, e.g., between 200 and 300 NTU, or even as high as 2,000 NTU. The aim is to develop a beverage with a turbidity<15 NTU. After production of the treatments, the turbidity will therefore be measured by a turbidity meter.
• 1. Before starting the experiment, the most optimal solubilizing phase of the emulsifier (organic or in aqueous phase) may be investigated. This could influence the droplet size and is different for every emulsifier (the movement of the emulsifier from the oil phase into the aqueous phase may be important in the formation of nano emulsions by this method). • 2. Prepare a pre-emulsion comprising the emulsifier in water or oil phase in order to fully dissolve the emulsifier. […] The concentrated emulsion may especially be made into a ready-to-drink clear beverage by diluting it with water. […]

Series [2] is described as follows: Observation of foam formation of the emulsion / diluted beverage.
The nature of series [3]: Observation of physical stability: viscosity, phase separation, storage / shelf life. The settings on record: before or after homogenization or on storage. An excerpt: • 1. Before starting the experiment, the most optimal solubilizing phase of the emulsifier (organic or in aqueous phase) may be investigated. This could influence the droplet size and is different for every emulsifier (the movement of the emulsifier from the oil phase into the aqueous phase may be important in the formation of nano emulsions by this method). • 2. Prepare a pre-emulsion comprising the emulsifier in water or oil phase in order to fully dissolve the emulsifier. When mixing the emulsifier into the solubilizing phase, an Ultra turrax is used at 10000 rpm (stand 37) for 3 minutes. If needed, the emulsifier and solubilized phase could be heated prior to mixing. • 3. Mix the pre-emulsion by slowly adding the oil phase to the aqueous phase while mixing with an Ultra turrax at 12000 rpm (stand 40) for 5 min). • 4. Let the pre-emulsion mixture rest for 1 hour. • 5. Homogenize the emulsion with a homogenizer preferably between 300-1200 bar, and between 3 and 5 passes. • 6. Collect the sample and measure the temperature directly. • 7. Allow it to cool completely before measuring the turbidity. • 8. The concentrated emulsion may especially be made into a ready-to-drink clear beverage by diluting it with water. Therefore, dilute a small amount of the obtained concentrated emulsion from step 6 with water to observe the clarity and turbidity of the final product. […]

Turning to Sucrose monostearate, in series [1], the Turbidity is reported as over 15 NTU. The Foam formation result in series [2] is “no foam formation”. Further, the “Viscosity / phase separation / storage behaviour” value in series [3] was “became extremely viscous after a couple days of storage”.

The record behind these values is patent publication US20250090555A1, “METHOD FOR PRODUCING A CBD […] OR SOLID AND USE THEREOF” (Food4Innovations Ventures B.V., priority 2022, published 2025).
